# Test system: DU-145 multicell spheroids with HUVEC/MSC, viability
# Experiment: Anticancer human tumor DU-145 cell line growth inhibition [IpAb];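 note: spheroids exposed to agents for seven days before measurement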;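 for viability, T/C: percent of DMSO vehicle control viability so 100% = untreated level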
# Details: for IC50: curve of first compound; for viability, T/C: stronger effect = lower value
# Excerpt: Combinatorial screen of targeted agents with ipatasertib and abemaciclib in multi-cell type tumor spheroids
# A high-throughput screen of multi-cell type tumor spheroids was designed to identify active combinations of targeted small molecules and ipatasertib or abemaciclib. Complex spheroids include a stromal component modeled by human endothelial cells (HUVEC) and fibroblasts modeled by human mesenchymal stem cells (MSCs). The concentration ranges selected for each drug and investigational agent were based upon clinically achievable concentrations if the clinical Cmax of the agent was known.
# Compounds. The drugs and investigational agents: ipatasertib (NSC767898), abemaciclib(NSC768073), selumetinib (NSC741078), trametinib (758246), adavosertib (NSC754352), everolimus (NSC733504), sapanisertib (NSC764658), vemurafenib (NSC761431), venetoclax (NSC766270), copanlisib (NSC809693), apelisib (NSC765974), palbociblib (NSC758247), vemurafenib (NSC761431), dabrafenib (NSC764134), ravoxertinib (NSC781343), BMS-387032 (NSC767048), sotorasib (NSC818433), talazoparib (NSC767125) and afursertib (NSC778305), were obtained from the National Cancer Institute (NCI) Developmental Therapeutics Program Chemical Repository. The FDA-approved anticancer drug set is available from the NCI Developmental Therapeutics Program. […] The stock solutions were prepared in dimethyl sulfoxide (DMSO, Sigma-Aldrich, St. Louis, MO, cat. D2650) at 800-fold the tested concentration and stored at -70 degrees C prior to their use. All drugs and investigational agents were tested over a range starting from a high concentration at or near the clinical Cmax and decreasing in half-log increments. If the clinical Cmax for an agent had not been determined, the highest concentration tested was 10 microM.
# NCI60 Cell Culture. NCI60 cell lines were obtained from the NCI Developmental Therapeutics Program Tumor Repository. For each lot of cells, the Repository performed Applied Biosystems AmpFLSTR Identifiler testing with PCR amplification to confirm consistency with the published Identifier STR profile for each cell line. Cells were kept in continuous culture for no more than 20 passages. The optimal seeding densities for each of the cell lines at each time point assessed were determined prior to performing the concentration response studies. Briefly, the NCI60 human tumor lines were grown as monolayers in RPMI 1640 medium supplemented with 10% FBS and 2 mmol/L L-glutamine.
# An additional 9 lines were from the NCI60 cell line panel including MDA-MB-231 breast carcinoma, MDA-MB-468 breast carcinoma, MCF7 breast carcinoma, Hs578T breast carcinoma, MALME-3M melanoma, SK-MEL-2 melanoma, SK-OV-3 ovarian carcinoma, DU-145 prostate carcinoma, PC-3 prostate carcinoma, all cell lines along with major genetic alterations are listed on Table 2. Pooled donor human umbilical vein endothelial cells (HUVEC, Lonza, cat. CC-2519) and human mesenchymal stem cells (hMSC, Lonza, cat. PT-2501) were purchased from Lonza (Walkersville, MD).
# PDMR cell lines were grown in complete medium (DC medium): Dulbecco's modified Eagle's medium (DMEM)/F12 supplemented with 5% fetal bovine serum (FBS), 2 mM L-glutamine, 100 U/mL penicillin and 100 µg/ml streptomycin, 0.4 µg/ml hydrocortisone, 10 ng/ml epidermal growth factor (EGF) recombinant human protein, 24 µg/mL adenine, and 0.1 mg/mL primocin. During culture from frozen stock vials, PDMR cells were cultured in the same medium containing 10 µM Y-27632 (see Table 3). The PDCs were cultured in complete DMEM/F12 media without 10 microM Y-27632 dihydrochloride for at least two passages prior to the screen. The pooled donor HUVEC and hMSC were cultured in endothelial cell growth medium 2 (PromoCell, Heidelberg, Germany, cat. C-22011) and mesenchymal stem cell growth medium 2 (PromoCell, cat. C-28009), respectively. For all experiments, HUVEC and hMSC were used at passages </=5.
# […]
# [1] = second compound 0.1 µM, first compound 0.0316 µM
# [2] = second compound 0.1 µM, first compound 0.1 µM
# [3] = second compound 0.316 µM, first compound 0.0316 µM
# [4] = second compound 0.316 µM, first compound 0.1 µM
# [5] = second compound 1 µM, first compound 0.0316 µM
# [6] = second compound 1 µM, first compound 0.1 µM
# [7] = second compound 3.16 µM, first compound 0.0316 µM
# [8] = second compound 3.16 µM, first compound 0.1 µM
# [9] = second compound 10 µM, first compound 0.0316 µM
# [10] = second compound 10 µM, first compound 0.1 µM
# [11] = second compound 0.1 µM, first compound 0.316 µM
# [12] = second compound 0.1 µM, first compound 1 µM
# [13] = second compound 0.1 µM, first compound 3.16 µM
# [14] = second compound 0.1 µM, first compound 10 µM
# [15] = second compound 0.316 µM, first compound 0.316 µM
# [16] = second compound 0.316 µM, first compound 1 µM
# [17] = second compound 0.316 µM, first compound 3.16 µM
# [18] = second compound 0.316 µM, first compound 10 µM
# [19] = second compound 1 µM, first compound 0.316 µM
# [20] = second compound 1 µM, first compound 1 µM
# [21] = second compound 1 µM, first compound 3.16 µM
# [22] = second compound 1 µM, first compound 10 µM
# [23] = second compound 3.16 µM, first compound 0.316 µM
# [24] = second compound 3.16 µM, first compound 1 µM
# [25] = second compound 3.16 µM, first compound 3.16 µM
# [26] = second compound 3.16 µM, first compound 10 µM
# [27] = second compound 10 µM, first compound 0.316 µM
# [28] = second compound 10 µM, first compound 1 µM
# [29] = second compound 10 µM, first compound 3.16 µM
# [30] = second compound 10 µM, first compound 10 µM
Compound,IC50 (second compound 0.1 µM) [nM],IC50 (second compound 0.316 µM) [nM],IC50 (second compound 1 µM) [nM],IC50 (second compound 3.16 µM) [nM],IC50 (second compound 10 µM) [nM],"viability, T/C [1] [%]","viability, T/C [2] [%]","viability, T/C [3] [%]","viability, T/C [4] [%]","viability, T/C [5] [%]","viability, T/C [6] [%]","viability, T/C [7] [%]","viability, T/C [8] [%]","viability, T/C [9] [%]","viability, T/C [10] [%]","viability, T/C [11] [%]","viability, T/C [12] [%]","viability, T/C [13] [%]","viability, T/C [14] [%]","viability, T/C [15] [%]",other results
CC(C)n1nc(-c2ccc3oc(N)nc3c2)c2c(N)ncnc21 + CC(C)NCC(C(=O)N1CCN(c2ncnc3c2C(C)CC3O)CC1)c1ccc(Cl)cc1,0.905,< 0.316,< 0.316,< 0.316,< 0.316,12.2,9.34,9.74,7.89,7.4,6.44,6.17,5.92,5.82,5.09,,,,,,"viability, T/C (second compound 0.1 µM, first compound 0.000316 µM): 64.2%; viability, T/C (second compound 0.1 µM, first compound 0.001 µM): 48.1%; viability, T/C (second compound 0.1 µM, first compound 0.00316 µM): 32.4%; viability, T/C (second compound 0.1 µM, first compound 0.01 µM): 18.1%; viability, T/C (second compound 0.316 µM, first compound 0.000316 µM): 49.2%; viability, T/C (second compound 0.316 µM, first compound 0.001 µM): 32.3%; viability, T/C (second compound 0.316 µM, first compound 0.00316 µM): 22.9%; viability, T/C (second compound 0.316 µM, first compound 0.01 µM): 13.5%; viability, T/C (second compound 1 µM, first compound 0.000316 µM): 29%; viability, T/C (second compound 1 µM, first compound 0.001 µM): 23.1%; viability, T/C (second compound 1 µM, first compound 0.00316 µM): 14%; viability, T/C (second compound 1 µM, first compound 0.01 µM): 8.57%; viability, T/C (second compound 3.16 µM, first compound 0.000316 µM): 18.6%; viability, T/C (second compound 3.16 µM, first compound 0.001 µM): 14.2%; viability, T/C (second compound 3.16 µM, first compound 0.00316 µM): 9.92%; viability, T/C (second compound 3.16 µM, first compound 0.01 µM): 6.7%; viability, T/C (second compound 10 µM, first compound 0.000316 µM): 14.1%; viability, T/C (second compound 10 µM, first compound 0.001 µM): 14.2%; viability, T/C (second compound 10 µM, first compound 0.00316 µM): 7.9%; viability, T/C (second compound 10 µM, first compound 0.01 µM): 6.04%"
CC1(C)CCC(CN2CCN(c3ccc(C(=O)NS(=O)(=O)c4ccc(NCC5CCOCC5)c([N+](=O)[O-])c4)c(Oc4cnc5[nH]ccc5c4)c3)CC2)=C(c2ccc(Cl)cc2)C1 + CC(C)NCC(C(=O)N1CCN(c2ncnc3c2C(C)CC3O)CC1)c1ccc(Cl)cc1,3450,497,< 31.6,< 31.6,< 31.6,86.7,87.5,58.1,53.6,30.5,29.4,23.1,20.6,19.1,19.2,78.1,74.9,53.3,11.5,50.6,"viability, T/C [16]: 45.2%; viability, T/C [17]: 37%; viability, T/C [18]: 8.7%; viability, T/C [19]: 30.9%; viability, T/C [20]: 28.6%; viability, T/C [21]: 27.1%; viability, T/C [22]: 10.4%; viability, T/C [23]: 20.4%; viability, T/C [24]: 19.6%; viability, T/C [25]: 19.9%; viability, T/C [26]: 5.88%; viability, T/C [27]: 18.4%; viability, T/C [28]: 16.9%; viability, T/C [29]: 15.9%; viability, T/C [30]: 5.38%"
CCCS(=O)(=O)Nc1ccc(F)c(C(=O)c2c[nH]c3ncc(-c4ccc(Cl)cc4)cc23)c1F + CC(C)NCC(C(=O)N1CCN(c2ncnc3c2C(C)CC3O)CC1)c1ccc(Cl)cc1,> 10000,> 10000,< 31.6,< 31.6,< 31.6,88.2,91.3,53.9,64.1,33.1,31.8,22.3,25.9,19.6,20.1,86.6,96.3,96.7,68.2,61.4,"viability, T/C [16]: 76.4%; viability, T/C [17]: 66.8%; viability, T/C [18]: 43.6%; viability, T/C [19]: 37.7%; viability, T/C [20]: 41.2%; viability, T/C [21]: 46.3%; viability, T/C [22]: 29.9%; viability, T/C [23]: 24.4%; viability, T/C [24]: 22.4%; viability, T/C [25]: 23.6%; viability, T/C [26]: 20.3%; viability, T/C [27]: 19.1%; viability, T/C [28]: 19.7%; viability, T/C [29]: 18.3%; viability, T/C [30]: 14.2%"

# From PubChem BioAssay AID2060335 (Molecular Pharmacology Branch, DTP, NCI, 2025)
